Tested on: 624824-186-R-J3-PDC multicell spheroids, viability
Test: Anticancer human tumor 624824-186-R-J3-PDC patient-derived colon adenocarcinoma cell line growth inhibition [PI3K]
Details: for IC50: curve of first compound; for viability, T/C: stronger effect = lower value; active = viability on the fitted dose curve at most 10% of control; inactive = the rest
Excerpt: Combinatorial screen of targeted agents with the PI3K inhibitors inavolisib, alpelisib, duvelisib, and copanlisib in multi-cell type tumor spheroids
A high-throughput screen of multi-cell type tumor spheroids was designed to identify active combinations of targeted small molecules and PI3K pathway inhibitors. Complex spheroids include a stromal component modeled by human endothelial cells (HUVEC) and fibroblasts modeled by human mesenchymal stem cells (MSCs). The concentration ranges selected for each drug and investigational agent were based upon clinically achievable concentrations if the clinical Cmax of the agent was known.
Compounds. The drugs and investigational agents: inavolisib (NSC800729), alpelisib (NSC765974), duvelisib (NSC772469), copanlisib (NSC816437), ipatasertib (NSC767898), afuresertib (NSC778305), talazoparib (NSC767125), sapanisertib (NSC764658), selumetinib (NSC741078), tovorafenib (DAY101, NSC766906), vemurafenib (NSC761431), ravoxertinib (NSC781343), sotorasib (NSC818433), MRTX1133 (NSC 836407), abemaciclib (NSC 768073), palbociclib (NSC758247), venetoclax (NSC 766270), SY5609 (NSC837396), enzalutamide (NSC755605), and darolutamide (NSC825331), were obtained from the National Cancer Institute (NCI) Developmental Therapeutics Program Chemical Repository. The FDA-approved anticancer drug set is available from the NCI Developmental Therapeutics Program. […] The stock solutions were prepared in dimethyl sulfoxide (DMSO, Sigma-Aldrich, St. Louis, MO, cat. D2650) at 800-fold the tested concentration and stored at -70 degrees C prior to their use. All drugs and investigational agents were tested over a range starting from a high concentration at or near the clinical Cmax and decreasing in half-log increments. If the clinical Cmax for an agent had not been determined, the highest concentration tested was 10 microM.
Cell Culture. All cells were maintained in an incubator at 37 degrees C and 5% CO2 with 95% humidity. The PDC lines were cultured according to standard operating procedures established by the NCI PDMR (https://pdmr.cancer.gov/sops/default.htm). All PDCs were thawed and cultured in Matrigel-coated flasks prepared with a working solution of 1X Ham's F-12 nutrient mix, without supplementation (Invitrogen, Waltham, MA, cat. 11765054), 100 U/mL penicillin-streptomycin (Invitrogen, cat. 15140122), and 2.5% Matrigel (Corning Inc., Corning, NY, cat. 354248) for the first three passages. The 354836-022-R-J1-PDC, 475296-252-R-J1-PDC, and 997726-040-R-J2-PDC lines were cultured in 6A media, which includes advanced DMEM/F-12 (Thermo Fisher Scientific, cat. 12634028), 10 mM HEPES (Thermo Fisher Scientific, cat. 15630080), 1X GlutaMAX supplement (Thermo Fisher Scientific, cat. 35050061), 0.1 mg/mL primocin (InvivoGen, San Diego, CA, cat. ant-pm-2), 10% defined fetal bovine serum, heat inactivated (HyClone Laboratories Inc., Logan, UT, cat. SH30070.03HI), 50% L-WRN conditioned media (ATCC, cat. CRL-3276), 1.25 mM N-Acetyl-L-cysteine (Sigma-Aldrich, cat. A9165), 10 mM nicotinamide (Sigma-Aldrich, cat. N0636), 1X B-27 supplement (Thermo Fisher Scientific, cat. 17504044), 1X N-2 supplement (Thermo Fisher Scientific, cat. 17502048), and 10 microM Y-27632 dihydrochloride (Tocris Bioscience, Bristol, United Kingdom, cat. 1254). The 624824-186-R-J2-PDC line was cultured in 6C/Colon 1B media, which includes all 6A media components plus 50 ng/mL human EGF recombinant protein (Thermo Fisher Scientific, cat. PHG0311). […]

[1] = second compound 0.00316 µM, first compound 0.0316 µM
[2] = second compound 0.00316 µM, first compound 0.1 µM
[3] = second compound 0.01 µM, first compound 0.0316 µM
[4] = second compound 0.01 µM, first compound 0.1 µM
[5] = second compound 0.0316 µM, first compound 0.0316 µM
[6] = second compound 0.0316 µM, first compound 0.1 µM
[7] = second compound 0.1 µM, first compound 0.0316 µM
[8] = second compound 0.1 µM, first compound 0.1 µM
[9] = second compound 0.316 µM, first compound 0.0316 µM
[10] = second compound 0.316 µM, first compound 0.1 µM
[11] = second compound 1 µM, first compound 0.0316 µM
[12] = second compound 1 µM, first compound 0.1 µM
[13] = second compound 0.00316 µM, first compound 0.316 µM
[14] = second compound 0.00316 µM, first compound 1 µM
[15] = second compound 0.00316 µM, first compound 3.16 µM
[16] = second compound 0.00316 µM, first compound 10 µM
[17] = second compound 0.01 µM, first compound 0.316 µM
[18] = second compound 0.01 µM, first compound 1 µM
[19] = second compound 0.01 µM, first compound 3.16 µM
[20] = second compound 0.01 µM, first compound 10 µM
[21] = second compound 0.0316 µM, first compound 0.316 µM
[22] = second compound 0.0316 µM, first compound 1 µM
[23] = second compound 0.0316 µM, first compound 3.16 µM
[24] = second compound 0.0316 µM, first compound 10 µM
[25] = second compound 0.1 µM, first compound 0.316 µM
[26] = second compound 0.1 µM, first compound 1 µM
[27] = second compound 0.1 µM, first compound 3.16 µM
[28] = second compound 0.1 µM, first compound 10 µM
[29] = second compound 0.316 µM, first compound 0.316 µM
[30] = second compound 0.316 µM, first compound 1 µM
[31] = second compound 0.316 µM, first compound 3.16 µM
[32] = second compound 0.316 µM, first compound 10 µM
[33] = second compound 1 µM, first compound 0.316 µM
[34] = second compound 1 µM, first compound 1 µM
[35] = second compound 1 µM, first compound 3.16 µM
[36] = second compound 1 µM, first compound 10 µM
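Note: spheroids exposed to agents for seven days before luminescence read.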
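Throughout, for viability, T/C: luminescent signal used as a stand-in for spheroid viability; percent viability relative to DMSO vehicle control wells taken as 100%.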

CC(C)n1nc(-c2ccc3oc(N)nc3c2)c2c(N)ncnc21 + CC(Nc1ccc2c(c1)OCCn1cc(N3C(=O)OCC3C(F)F)nc1-2)C(N)=O
0.0917 µM: IC50 (second compound 0.0316 µM)
inactive: viability, T/C (second compound 0.00316 µM, first compound 0.000316 µM) 99.7% | viability, T/C (second compound 0.00316 µM, first compound 0.001 µM) 96.8% | viability, T/C (second compound 0.00316 µM, first compound 0.00316 µM) 102% | viability, T/C (second compound 0.00316 µM, first compound 0.01 µM) 101% | viability, T/C [1] 96.2% | viability, T/C [2] 53.6% | viability, T/C (second compound 0.01 µM, first compound 0.000316 µM) 97.3% | viability, T/C (second compound 0.01 µM, first compound 0.001 µM) 102% | viability, T/C (second compound 0.01 µM, first compound 0.00316 µM) 103% | viability, T/C (second compound 0.01 µM, first compound 0.01 µM) 105% | viability, T/C [3] 93.6% | viability, T/C [4] 59.8% | viability, T/C (second compound 0.0316 µM, first compound 0.000316 µM) 105% | viability, T/C (second compound 0.0316 µM, first compound 0.001 µM) 106% | viability, T/C (second compound 0.0316 µM, first compound 0.00316 µM) 98.2% | viability, T/C (second compound 0.0316 µM, first compound 0.01 µM) 99.9% | viability, T/C [5] 93.2% | viability, T/C [6] 46.5% | viability, T/C (second compound 0.1 µM, first compound 0.000316 µM) 99.2% | viability, T/C (second compound 0.1 µM, first compound 0.001 µM) 106% | viability, T/C (second compound 0.1 µM, first compound 0.00316 µM) 101% | viability, T/C (second compound 0.1 µM, first compound 0.01 µM) 96.3% | viability, T/C [7] 84.5% | viability, T/C [8] 42.3% | viability, T/C (second compound 0.316 µM, first compound 0.000316 µM) 92.4% | viability, T/C (second compound 0.316 µM, first compound 0.001 µM) 92.7% | viability, T/C (second compound 0.316 µM, first compound 0.00316 µM) 90.7% | viability, T/C (second compound 0.316 µM, first compound 0.01 µM) 84.9% | viability, T/C [9] 83% | viability, T/C [10] 36.2% | viability, T/C (second compound 1 µM, first compound 0.000316 µM) 85.8% | viability, T/C (second compound 1 µM, first compound 0.001 µM) 86.9% | viability, T/C (second compound 1 µM, first compound 0.00316 µM) 86.5% | viability, T/C (second compound 1 µM, first compound 0.01 µM) 70.5% | viability, T/C [11] 59.5% | viability, T/C [12] 26.2%
0.0422 µM: IC50 (second compound 1 µM)
0.0811 µM: IC50 (second compound 0.1 µM)
0.071 µM: IC50 (second compound 0.316 µM)
> 0.1 µM: IC50 (second compound 0.00316 µM) | IC50 (second compound 0.01 µM)

CC1(C)CCC(CN2CCN(c3ccc(C(=O)NS(=O)(=O)c4ccc(NCC5CCOCC5)c([N+](=O)[O-])c4)c(Oc4cnc5[nH]ccc5c4)c3)CC2)=C(c2ccc(Cl)cc2)C1 + CC(Nc1ccc2c(c1)OCCn1cc(N3C(=O)OCC3C(F)F)nc1-2)C(N)=O
9.41 µM: IC50 (second compound 0.00316 µM)
9.64 µM: IC50 (second compound 0.0316 µM)
> 10 µM: IC50 (second compound 0.316 µM)
9.12 µM: IC50 (second compound 1 µM)
inactive: viability, T/C [1] 104% | viability, T/C [2] 88.6% | viability, T/C [13] 102% | viability, T/C [14] 90.9% | viability, T/C [15] 112% | viability, T/C [16] 47.3% | viability, T/C [3] 105% | viability, T/C [4] 92% | viability, T/C [17] 99.5% | viability, T/C [18] 106% | viability, T/C [19] 114% | viability, T/C [20] 43.2% | viability, T/C [5] 100% | viability, T/C [6] 105% | viability, T/C [21] 89.4% | viability, T/C [22] 99% | viability, T/C [23] 117% | viability, T/C [24] 48.3% | viability, T/C [7] 88.7% | viability, T/C [8] 99.9% | viability, T/C [25] 90.9% | viability, T/C [26] 109% | viability, T/C [27] 102% | viability, T/C [28] 47.1% | viability, T/C [9] 98.5% | viability, T/C [10] 95.3% | viability, T/C [29] 99.2% | viability, T/C [30] 86.3% | viability, T/C [31] 89% | viability, T/C [32] 53.6% | viability, T/C [11] 82.7% | viability, T/C [12] 85.5% | viability, T/C [33] 85.7% | viability, T/C [34] 81.4% | viability, T/C [35] 70.2% | viability, T/C [36] 48.2%
9.37 µM: IC50 (second compound 0.1 µM)
8.77 µM: IC50 (second compound 0.01 µM)

CCCS(=O)(=O)Nc1ccc(F)c(C(=O)c2c[nH]c3ncc(-c4ccc(Cl)cc4)cc23)c1F + CC(Nc1ccc2c(c1)OCCn1cc(N3C(=O)OCC3C(F)F)nc1-2)C(N)=O
0.637 µM: IC50 (second compound 0.316 µM)
0.353 µM: IC50 (second compound 1 µM)
3.38 µM: IC50 (second compound 0.0316 µM)
1.39 µM: IC50 (second compound 0.1 µM)
inactive: viability, T/C [1] 93.5% | viability, T/C [2] 89.6% | viability, T/C [13] 98.9% | viability, T/C [14] 88% | viability, T/C [15] 71.9% | viability, T/C [16] 17.3% | viability, T/C [3] 100% | viability, T/C [4] 94.1% | viability, T/C [17] 86.9% | viability, T/C [18] 74.4% | viability, T/C [19] 67.9% | viability, T/C [20] 12.9% | viability, T/C [5] 103% | viability, T/C [6] 92.8% | viability, T/C [21] 83.4% | viability, T/C [22] 73.7% | viability, T/C [23] 55.6% | viability, T/C [24] 13.9% | viability, T/C [7] 99% | viability, T/C [8] 86.1% | viability, T/C [25] 76.8% | viability, T/C [26] 48.6% | viability, T/C [27] 40.9% | viability, T/C [28] 14.1% | viability, T/C [9] 95.2% | viability, T/C [10] 87.7% | viability, T/C [29] 56.7% | viability, T/C [30] 41.8% | viability, T/C [31] 30.6% | viability, T/C [32] 13.3% | viability, T/C [11] 77.7% | viability, T/C [12] 69.5% | viability, T/C [33] 44.4% | viability, T/C [34] 38.1% | viability, T/C [35] 32.3% | viability, T/C [36] 11.6%
5 µM: IC50 (second compound 0.00316 µM)
4.15 µM: IC50 (second compound 0.01 µM)

Source: PubChem BioAssay AID1963977 (Molecular Pharmacology Branch, DTP, NCI, 2024)
